According to patent EP0314302A2, “Herbicidal o-carbomethoxy-sulfonylureas” (E.I. DU PONT DE NEMOURS AND COMPANY, priority 1987, dated 1989):

Tests used:
Kochia scoparia = experiment: Test 1 greenhouse, preemergence; type: in vivo; conditions: 21 days, scale 0-100
Method: (§1) Seeds of Bromus tectorum, Kochia scoparia, Salsoa kali, Avena fatua, Convolvulus arvensis, Secale cereale, Setaria viridis and Triticum aestivum were placed in 26-cm plastic pans containing a pasteurized sandy loam soil (pH 6.5, 1% organic matter). Plantings were maintained in the greenhouse for 18-28 days at which time the postemergence treatments were applied using a nonphytotoxic solvent as the carrier for the herbicide. The preemergence segment of the test was seeded immediately before herbicide application using Bromus tectorum, Kochia scoparia, Polygonum convolvulus, Salsoa kali, Avena fatua, Convolvulus arvensis, Secale cereale, Setaria viridis, Aegilops cylindrica, Amaranthus retroflexus, Chenopodium album, Hordeum vulgare, Triticum aestivum, Sorghum bicolor, and Zea mays. All treatments were maintained in the greenhouse for an additional 21 days at which time visual assessment of weed control was determined using a scale of 0 to 100 for each species where 0 represented no control and 100 represented complete control.

Chenopodium album = experiment: Test 1 greenhouse, preemergence; type: in vivo; conditions: 21 days, scale 0-100
Method: as §1

Triticum aestivum = experiment: Test 1 greenhouse, preemergence; type: in vivo; conditions: 21 days, scale 0-100
Method: as §1

Salsoa kali = experiment: Test 1 greenhouse, preemergence; type: in vivo; conditions: 21 days, scale 0-100
Method: as §1

Convolvulus arvensis = experiment: Test 1 greenhouse, preemergence; type: in vivo; conditions: 21 days, scale 0-100
Method: as §1

Setaria viridis = experiment: Test 1 greenhouse, preemergence; type: in vivo; conditions: 21 days, scale 0-100
Method: as §1

Avena fatua = experiment: Test 1 greenhouse, preemergence; type: in vivo; conditions: 21 days, scale 0-100
Method: as §1

Bindweed = experiment: Test 9 postemergence; type: in vivo, Convolvulus spp; conditions: 16 g/ha, scale 0-100
Method: (§2) Plastic windowsill pots containing planting medium were seeded with bahiagrass, bindweed (Convolvulus spp), guinea grass (Panicum maximum), large crabgrass (Digitaria sanguinalis) and pigweed (Amaranthus spp). Individual 15-cm plastic pots contained sandbur (Cenchrus echinatus), Mikania cordata, Boston fern (Nephrolepis exalata), quackgrass (Agropyron repens), elephantgrass (Pennisetum purpureum) and sowthistle (Sonchus spp) plants.
(§3) Plants were treated postemergence with Compound I formulated in a non-phytotoxic solvent. Plants were visually rated 22 days after treatment (DAT). Injury and weed control ratings were based on the scale of 0 to 100 where 0 = no effect, 20 = minimal control and 100 = complete control.

Sowthistle = experiment: Test 9 postemergence; type: in vivo, Sonchus spp; conditions: scale 0-100
Method: as §2, §3

Wild radish = experiment: Test 7 postemergence; type: in vivo, Raphanus raphanistruna; conditions: scale 0-100
Method: (§4) Individual 11.4-cm plastic pots filled with planting medium were seeded with rape, wild radish (Raphanus raphanistruna). tansy mustard (Descurainia pinnata), ball mustard (Neslia paniculata), black mustard (Brassica nigra), yellow mustard, brown mustard, lentils, safflower, flax, sunflower, peanut, vetch, alfalfa, field bean, pea, violet (Viola spp), Kochia (Kochia spp), Russian thistle (Salsola spp), Matricaria spp, groundsel (Senecio spp), shepherdspurse (Capsella bursa-pastoris), nightshade (Solanum spp), sowthistle (Sonchus spp), sugar beet, wheat, "Bonanza" barley and "Morex" barley, Kentucky bluegrass (Poa pratensis), red clover (Trifolium pratense), dandelion (Taraxacum spp) and buckhorn plantain (Plantago lanceolata).
(§5) Plants were treated postemergence with the compound formulated with a non-phytotoxic carrier. Plants were visually rated 18 days after treatment (DAT). Response ratings were based on the scale of 0 to 100 where 0 = no effect, 20 = minimal injury and 100 = complete control.

Common ragweed = experiment: Test 11 citrus pots, preemergence to the weeds; type: in vivo, Ambrosia artemisiifolia; conditions: Preemergence 32 g/ha; 0.25% X-77 surfactant; scale 0-100
Method: (§6) Budded citrus seedlings were planted in 30-liter plastic pots which were also seeded with sandbur, guineagrass, narrowleaf panicum, common ragweed, yellow nutsedge, purple nutsedge and bindweed. Compound I was applied preemergence and postemergence to the weeds. Treatments were sprayed to simulate the trunk-to-trunk herbicide application method used in some citrus groves. The compound was also applied postemergence to weeds grown in windowsill flats. The flats were filled with planting medium and seeded with morningglory (Ipomoea spp.). purple nutsedge (Cyperus rotundus), pigweed (Amaranthus spp.), bindweed (Convolvulus spp.), narrowleaf panicum (Panicum maximum), common ragweed (Ambrosia artemisiifolia), sandbur (Cenchrus echinatus), itchgrass (Rottboellia exaltata), johnsongrass (Sorghum halepense), guineagrass (Panicum maximum), smooth crabgrass (Digitaria ischaemum), broadleaf signalgrass (Brachiaria platyphylla), bermudagrass (Cynodon dactylon), goosegrass (Eleusine indica), large crabgrass (Digitaria sanguinalis) and yellow nutsedge (Cyperus esculentus).
(§7) The compound was formulated and sprayed with 0.25% X-77 surfactant in water. Plants were visually rated 21 and 29 days after treatment and compared with appropriate controls. Injury ratings were based on the scale of 0 to 100, where 0 indicates no effect, 20 indicates minimum effect and 100 indicates complete control. […]

Guineagrass [1] = experiment: Test 11 windowsill flats, postemergence; type: in vivo, Panicum maximum; conditions: Postemergence 32 g/ha, 0.25% X-77 surfactant, scale 0-100
Method: as §6, §7

Narrowleaf panicum [2] = experiment: Test 11 windowsill flats, postemergence; type: in vivo, Panicum maximum; conditions: Postemergence 32 g/ha, 0.25% X-77 surfactant, scale 0-100
Method: as §6, §7

Russian thistle = experiment: Test 7 postemergence; type: in vivo, Salsola spp; conditions: scale 0-100
Method: as §4, §5

Guineagrass [3] = experiment: Test 11 citrus pots, preemergence to the weeds; type: in vivo, Panicum maximum; conditions: Preemergence 32 g/ha; 0.25% X-77 surfactant; scale 0-100
Method: as §6, §7

Narrowleaf panicum [4] = experiment: Test 11 citrus pots, preemergence to the weeds; type: in vivo, Panicum maximum; conditions: Preemergence 32 g/ha; 0.25% X-77 surfactant; scale 0-100
Method: as §6, §7

COC(=O)c1cccnc1S(=O)(=O)NC(=O)Nc1nc(OC)cc(OC)n1 [Compound I, 2-[[(4,6-dimethoxypyrimidin-2-yl)aminocarbonyl]aminosulfonyl]-3-pyridinecarboxylic acid, methyl ester]
visual assessment of weed control (Kochia scoparia; 4 g/ha): 80
visual assessment of weed control (Kochia scoparia; 8 g/ha): 80
visual assessment of weed control (Kochia scoparia; 16 g/ha): 100
visual assessment of weed control (Kochia scoparia; 32 g/ha): 100
visual assessment of weed control (Kochia scoparia; 64 g/ha): 100
visual assessment of weed control (Kochia scoparia; 125 g/ha): 100
visual assessment of weed control (Chenopodium album; 4 g/ha): 60
visual assessment of weed control (Chenopodium album; 8 g/ha): 90
visual assessment of weed control (Chenopodium album; 16 g/ha): 90
visual assessment of weed control (Chenopodium album; 32 g/ha): 100
visual assessment of weed control (Chenopodium album; 64 g/ha): 100
visual assessment of weed control (Chenopodium album; 125 g/ha): 100
visual assessment of weed control (Triticum aestivum; 4 g/ha): 70
visual assessment of weed control (Triticum aestivum; 8 g/ha): 100
visual assessment of weed control (Triticum aestivum; 16 g/ha): 100
visual assessment of weed control (Triticum aestivum; 32 g/ha): 100
visual assessment of weed control (Triticum aestivum; 64 g/ha): 100
visual assessment of weed control (Triticum aestivum; 125 g/ha): 100
visual assessment of weed control (Salsoa kali; 4 g/ha): 50
visual assessment of weed control (Salsoa kali; 8 g/ha): 70
visual assessment of weed control (Salsoa kali; 16 g/ha): 70
visual assessment of weed control (Salsoa kali; 32 g/ha): 80
visual assessment of weed control (Salsoa kali; 64 g/ha): 100
visual assessment of weed control (Salsoa kali; 125 g/ha): 100
visual assessment of weed control (Convolvulus arvensis; 4 g/ha): 20
visual assessment of weed control (Convolvulus arvensis; 8 g/ha): 40
visual assessment of weed control (Convolvulus arvensis; 16 g/ha): 90
visual assessment of weed control (Convolvulus arvensis; 32 g/ha): 90
visual assessment of weed control (Convolvulus arvensis; 64 g/ha): 100
visual assessment of weed control (Convolvulus arvensis; 125 g/ha): 100
visual assessment of weed control (Setaria viridis; 4 g/ha): 20
visual assessment of weed control (Setaria viridis; 8 g/ha): 30
visual assessment of weed control (Setaria viridis; 16 g/ha): 50
visual assessment of weed control (Setaria viridis; 32 g/ha): 70
visual assessment of weed control (Setaria viridis; 64 g/ha): 90
visual assessment of weed control (Setaria viridis; 125 g/ha): 100
visual assessment of weed control (Avena fatua; 4 g/ha): 0
visual assessment of weed control (Avena fatua; 8 g/ha): 40
visual assessment of weed control (Avena fatua; 16 g/ha): 50
visual assessment of weed control (Avena fatua; 32 g/ha): 60
visual assessment of weed control (Avena fatua; 64 g/ha): 90
visual assessment of weed control (Avena fatua; 125 g/ha): 100
Plant Injury Rating 22 DAT (Bindweed): 70
Plant Injury Rating 22 DAT (Sowthistle; 8 g/ha): 60
Plant Injury Rating 22 DAT (Sowthistle; 16 g/ha): 70
Plant Injury Rating 22 DAT (Sowthistle; 32 g/ha): 100
Plant Injury Rating 18 DAT (Wild radish; 16 g/ha): 100
Plant Injury Rating 18 DAT (Wild radish; 32 g/ha): 100
Injury ratings (Common ragweed): 20
Injury ratings (Guineagrass [1]): 100
Injury ratings (Narrowleaf panicum [2]): 90
Plant Injury Rating 18 DAT (Russian thistle; 16 g/ha): 100
Plant Injury Rating 18 DAT (Russian thistle; 32 g/ha): 100
Injury ratings (Guineagrass [3]): 100
Injury ratings (Narrowleaf panicum [4]): 80
